For two compounds, MM cell lysis results are on record in US20220002427A1, “BISPECIFIC ANTIBODY AGAINST BCMA AND CD3 AND AN IMMUNOLOGICAL DRUG FOR COMBINED USE IN TREATING MULTIPLE MYELOMA” (ENGMAB SARL, priority 2016, published 2022).

The subject of this test is H929 MM cells. Put plainly: H929 MM cell lysis with TCB alone or combined with lenalidomide, anti-PD-1 or daratumumab (co-culture with human leukocytes, flow cytometry). Format: cell-based. Conditions: H929 cells + leucocytes of Donor 1, 48 h. The text has this: FIGS. 21A-21B. Redirected T-cell lysis of H929 MM cells induced by anti-BCMA/anti-CD3 T-cell bispecific antibodies in combination with thalidomide derivatives (lenalidomide) or immunotherapeutic derivatives (anti-PD1 and anti-CD38 antibodies) as measured by flow cytometry. H929 MM cells were co-cultured with human leukocytes (n=1 or 5) and challenged to suboptimal concentrations of anti-BCMA/anti-CD3 T-cell bispecific antibody 83A10-TCcv (10 pM) (FIG. 21A) or 42-TCBcv (10 pM) (FIG. 21B) alone, in combination with suboptimal concentrations of lenalidomide (1 μM), anti-PD-1 (10 μg/ml) and anti-CD38 daratumumab (10 μg/ml).
Anti-BCMA/anti-CD3 T-cell bispecific antibody (namely 83A10-TCBcv or 42-TCBcv) was combined with three drugs representing different types of immunotherapy: lenalidomide, anti-PD-1 antibody and anti-CD38 antibody daratumumab. H929 MM cells were co-cultured with human leukocytes from healthy donors (n=1 or 5) in RPMI-1640 medium supplemented with 10% FBS, 0.5% gentamincin and 1% L-Glutamine at 37° C. in a humidified 5% CO2 incubator and challenged to suboptimal concentrations of 83A10-TCBcv (10 pM) (n=5) or 42-TCBcv (10 pM) (n=1) alone, or in combination with lenalidomide (1 μM), anti-PD-1 antibody (10 μg/ml) and anti-CD38 antibody daratumumab (10 μg/ml). […] FIG. 21B and Table 28 show the percentage of MM cell lysis when H929 cells and leucocytes from one healthy donor were exposed to 42-TCBcv (10 pM) combined with lenalidomide (1 μM), anti-PD-1 antibody (10 μg/ml) and anti-CD38 antibody daratumumab (10 μg/ml) for 48 h of culture.
(A flow cytometer gives signals particle by particle.)

Setting [1] is: with TCB (combination with 42-TCBcv).

As for `Nc1cccc2c1CN(C1CCC(=O)NC1=O)C2=O` (stereo not shown) [lenalidomide], the MM cell lysis by setting is: under setting [1], 13.27%; (without TCB) −1.78%.
In the same order, the values of “Daratumumab: anti-CD38 antibody (US20150246123)” are 42.29% and 33.06%.
